Measured values as given in US11135209B2, “Compositions and methods for inhibiting protein kinases” (UNIVERSITY OF HOUSTON SYSTEM, priority 2017, dated 2021).

Experiments:
[1] = target: Recombinant RIPK2 protein (Homo sapiens, UniProt O43353); experiment: Receptor Interacting Protein Kinase 2 (RIPK2) enzyme assay (ADP-Glo); format: biochemical
Procedure: Receptor Interacting Protein Kinase 2 (RIPK2) Enzyme Assay
Recombinant RIPK2 protein (20 ng per reaction) is diluted in the reaction buffer consisting of 40 mM Tris (pH 7.5); 20 mM MgCl2; 0.1 mg/ml BSA; 50 μM DTT. Diluted protein is added to low volume white 384 well plates (2 μL/well). Inhibitors are diluted in reaction buffer (final 25% DMSO), 1 μL is added to each well and incubated 5 min at room temperature. Reactions are initiated by the addition of 2 μL of 100 μM ATP and 1 mg/ml RS repeat peptide (SignalChem) in the reaction buffer. Plates are sealed with plastic coverslips and incubated at room temperature for 2 h. Reactions are stopped by the addition of 5 μL of ADP-Glo reagent (Promega) and ADP generation reaction is performed for 40 min at room temperature. Luminescence signal is generated by the addition of 10 μL of Kinase detection reagent (Promega) for 30 min at room temperature Luminescence signals are determined using appropriate luminescence plate-reader (typical integration time 0.3-1 sec). To calculate percent inhibition, average background signal is subtracted from test well and maximal signal wells. Inhibition, %=(1−(test signal/maximal signal))*100. The percent inhibition at a specified concentration is determined or IC50 values are calculated based on a dose range of inhibitor concentrations using non-linear regression in GraphPad Prism software.

[2] = tested on: NOD2 cellular signaling in HEK-Blue cells expressing human NOD2; experiment: NOD2 cell signaling assay (HEK-Blue, NFkB-SEAP reporter, L18-MDP stimulated); format: cell-based; settings: read-out: IC50 (nM) HEKBlue RIPK2
Procedure: NOD2 Cell Signaling Assay.
HEK-Blue cells expressing human NOD2 and NFkB-SAEP reporter (Invivogen) are seeded into 96 well clear plates at 7.5×10^3 cells per well in 100 μL of DMEM media supplemented with 10% FBS and 1% antibiotic-antimycotic mix. Cells are allowed to attach for 48 h in 5% CO2 tissue culture incubator at 37° C. On the morning of the experiment, media in the wells is replaced with 100 pt of HEK-Blue detection media (Invivogen). Cells are treated with the inhibitors, diluted in DMSO (0.5 μL per well) for 15 min in 5% CO2 tissue culture incubator at 37° C. After that, cells are stimulated by the addition of 1 ng/well L18-MDP (Invivogen). Cells are incubated in 5% CO2 tissue culture incubator at 37° C. for 8 h and absorbance, corresponding to the SEAP in the media, is determined in Wallac3V plate reader (Perkin Elmer). Inhibition, %=(1−((sample signal-unstimulated and DMSO treated cells)/(L18-MDP stimulated and DMSO treated cells−unstimulated and DMSO treated cells)))*100. IC50 values are calculated based on a dose range of inhibitor concentrations using non-linear regression in GraphPad Prism software.

[3] = target: T1, human ALK2 (Homo sapiens, UniProt Q04771); experiment: Activin-Like Kinase 2 (ALK2) enzyme assay; format: biochemical
T1 sequence (Q04771 21-509): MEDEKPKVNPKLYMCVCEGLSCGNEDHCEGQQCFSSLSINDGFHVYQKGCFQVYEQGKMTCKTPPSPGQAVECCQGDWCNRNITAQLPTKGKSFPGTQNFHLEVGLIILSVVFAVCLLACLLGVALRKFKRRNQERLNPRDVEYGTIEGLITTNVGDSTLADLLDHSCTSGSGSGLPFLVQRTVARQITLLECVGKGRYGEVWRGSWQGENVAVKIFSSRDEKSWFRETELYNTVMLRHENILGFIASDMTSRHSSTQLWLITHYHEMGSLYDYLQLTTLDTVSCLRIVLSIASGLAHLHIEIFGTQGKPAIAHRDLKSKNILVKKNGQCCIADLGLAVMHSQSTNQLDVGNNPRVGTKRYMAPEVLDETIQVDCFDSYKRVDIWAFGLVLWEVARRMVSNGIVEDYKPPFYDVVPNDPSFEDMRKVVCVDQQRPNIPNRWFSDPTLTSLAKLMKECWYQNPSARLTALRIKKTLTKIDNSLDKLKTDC
Procedure: Activin-Like Kinase 2 (ALK2) Enzyme Assay
Enzyme inhibitory activity was evaluated in a standard kinase enzyme assay by incubating human ALK2 with the protein substrate casein (1 mg/mL) and γ-^33ATP (10 μM) in the presence of various concentrations of test compounds (10 nM-100 μM). After 30 min the amount of ^33P-casein was determined.

Recombinant RIPK2 protein, sequence (O43353 whole entry, species assumed): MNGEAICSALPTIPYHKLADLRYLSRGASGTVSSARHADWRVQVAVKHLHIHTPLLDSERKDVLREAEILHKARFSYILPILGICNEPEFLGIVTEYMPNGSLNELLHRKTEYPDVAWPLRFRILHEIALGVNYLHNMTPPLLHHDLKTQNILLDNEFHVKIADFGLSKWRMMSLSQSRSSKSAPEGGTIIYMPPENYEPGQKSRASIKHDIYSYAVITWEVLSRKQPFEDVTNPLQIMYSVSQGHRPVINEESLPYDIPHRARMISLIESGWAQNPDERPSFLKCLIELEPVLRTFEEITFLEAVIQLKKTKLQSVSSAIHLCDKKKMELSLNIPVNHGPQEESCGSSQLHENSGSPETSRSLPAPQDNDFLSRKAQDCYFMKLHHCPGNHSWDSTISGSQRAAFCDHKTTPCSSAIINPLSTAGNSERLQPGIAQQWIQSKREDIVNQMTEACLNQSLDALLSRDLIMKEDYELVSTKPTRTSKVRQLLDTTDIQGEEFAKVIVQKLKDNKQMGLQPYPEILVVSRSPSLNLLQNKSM

SMILES	IC50 [1] [nM]	IC50 [3] [nM]	IC50 [2] [nM]
CCCS(=O)(=O)Nc1cc(-c2cc(-c3ccc(N4CCNCC4)cc3)cnc2N)cc(OC)c1C [CSLP19, N-(5-(2-Amino-5-(4-(piperazin-1-yl)phenyl)pyridin-3-yl)-3-methoxy-2-methylphenyl)propane-1-sulfonamide]	> 1000	> 100	> 1000
COc1cc(-c2cc(-c3ccc(N4CCNCC4)cc3)cnc2N)cc(NS(C)(=O)=O)c1C [CSLP21, N-(5-(2-Amino-5-(4-(piperazin-1-yl)phenyl)pyridin-3-yl)-3-methoxy-2-methylphenyl)methanesulfonamide]	> 1000	> 100	> 1000
COc1cc(-c2cc(-c3ccc(N4CCNCC4)cc3)cnc2N)cc(NS(=O)(=O)C(C)C)c1C [CSLP25, N-(5-(2-Amino-5-(4-(piperazin-1-yl)phenyl)pyridin-3-yl)-3-methoxy-2-methylphenyl)propane-2-sulfonamide]	> 1000	> 1000	> 1000
CCCS(=O)(=O)Nc1cc(-c2cc(-c3ccc(N4CCNCC4)cc3)cnc2N)ccc1C [CSLP26, N-(5-(2-Amino-5-(4-(piperazin-1-yl)phenyl)pyridin-3-yl)-2-methylphenyl)propane-1-sulfonamide]	> 100	> 1000	> 1000
CC(C)Oc1cc(NS(=O)(=O)C(C)C)cc(-c2cc(-c3ccc(N4CCNCC4)cc3)cnc2N)c1 [CSLP29, N-(3-(2-Amino-5-(4-(piperazin-1-yl)phenyl)pyridin-3-yl)-5-isopropoxyphenyl)propane-2-sulfonamide]	> 100	> 100000	> 100
CCCS(=O)(=O)Nc1cc(-c2cc(-c3cccc(S(C)(=O)=O)c3)cnc2N)ccc1OC [CSLP30]	> 100	> 10000	> 1000
COc1cc(-c2cc(-c3ccc(N4CCNCC4)cc3)cnc2N)cc(NS(=O)(=O)Cc2ccccc2)c1C [CSLP31, N-(5-(2-Amino-5-(4-(piperazin-1-yl)phenyl)pyridin-3-yl)-3-methoxy-2-methylphenyl)-1-phenylmethanesulfonamide]	> 1000	> 10	> 100
CCCS(=O)(=O)Nc1cc(-c2cc(-c3ccccc3S(C)(=O)=O)cnc2N)ccc1OC [CSLP33, N-(5-(2-Amino-5-(2-(methylsulfonyl)phenyl)pyridin-3-yl)-2-methoxyphenyl)propane-1-sulfonamide]	> 1000	> 100000	> 1000
CCCS(=O)(=O)Nc1cc(-c2cc(-c3ccc(S(C)(=O)=O)cc3)cnc2N)ccc1OC [CSLP34]	> 100	> 10000	> 1000
CCCS(=O)(=O)NCc1cc(-c2cc(-c3ccc(N4CCNCC4)cc3)cnc2N)ccc1OC [CSLP36, N-(5-(2-Amino-5-(4-(piperazin-1-yl)phenyl)pyridin-3-yl)-2-methoxybenzyl)propane-1-sulfonamide]	> 100	> 100	> 1000
CCCS(=O)(=O)Nc1cc(-c2cc(-c3ccc(N4CCNCC4)cc3)cnc2N)cc(Cl)c1C [CSLP40, N-(5-(2-Amino-5-(4-(piperazin-1-yl)phenyl)pyridin-3-yl)-3-chloro-2-methylphenyl)propane-1-sulfonamide]	> 100	> 100	> 1000
CCCS(=O)(=O)Nc1cc(-c2cc(-c3ccc(N4CCNCC4)cc3)cnc2N)cc(F)c1C [CSLP41, N-(5-(2-Amino-5-(4-(piperazin-1-yl)phenyl)pyridin-3-yl)-3-fluoro-2-methylphenyl)propane-1-sulfonamide]	> 100	> 100000	> 100
CCCS(=O)(=O)Nc1cc(-c2cc(-c3ccc(N4CCNCC4)cc3)cnc2N)cc(OC)c1OC [CSLP43, N-(5-(2-Amino-5-(4-(piperazin-1-yl)phenyl)pyridin-3-yl)-2,3-dimethoxyphenyl)propane-1-sulfonamide]	> 10	> 10	> 1
CCCS(=O)(=O)Nc1cc(-c2cc(-c3ccc(N4CCNCC4)cc3)cnc2N)cc(C)c1C [CSLP45, N-(5-(2-Amino-5-(4-(piperazin-1-yl)phenyl)pyridin-3-yl)-2,3-dimethylphenyl)propane-1-sulfonamide]	> 100	> 100	> 100
CCCS(=O)(=O)N1CCc2ccc(-c3cc(-c4ccc(N5CCNCC5)cc4)cnc3N)cc21 [CSLP46, 5-(4-(Piperazin-1-yl)phenyl)-3-(1-(propylsulfonyl)indolin-6-yl)pyridin-2-amine]	> 100	> 100000	> 1000

Continued, in another order:

IC50 [1] [nM]	IC50 [3] [nM]	SMILES	IC50 [2] [nM]
> 1	> 1	COc1cc(NS(=O)(=O)c2ccccc2)cc(-c2cc(-c3ccc(N4CCNCC4)cc3)cnc2N)c1 [CSLP20, N-(3-(2-Amino-5-(4-(piperazin-1-yl)phenyl)pyridin-3-yl)-5-methoxyphenyl)benzenesulfonamide]	> 10
> 10	> 100	CCOc1cc(NS(=O)(=O)C(C)C)cc(-c2cc(-c3ccc(N4CCNCC4)cc3)cnc2N)c1 [CSLP22, N-(3-(2-Amino-5-(4-(piperazin-1-yl)phenyl)pyridin-3-yl)-5-ethoxyphenyl)propane-2-sulfonamide]	> 10
> 100	> 1	COc1cc(NS(=O)(=O)Cc2ccccc2)cc(-c2cc(-c3ccc(N4CCNCC4)cc3)cnc2N)c1 [CSLP24, N-(3-(2-Amino-5-(4-(piperazin-1-yl)phenyl)pyridin-3-yl)-5-methoxyphenyl)-1-phenylmethanesulfonamide]	> 100
> 10	> 1000	COc1ccc(-c2cc(-c3ccc(N4CCNCC4)cc3)cnc2N)cc1NS(=O)(=O)C(C)C [CSLP28, N-(5-(2-Amino-5-(4-(piperazin-1-yl)phenyl)pyridin-3-yl)-2-methoxyphenyl)propane-2-sulfonamide]	> 100
> 10	> 100	CCCS(=O)(=O)Nc1cc(-c2cc(-c3ccc(N4CCNCC4)cc3)cnc2N)cc(Cl)c1OC [CSLP35]	> 10
> 10	> 100	CCCS(=O)(=O)Nc1cc(-c2cc(-c3ccc(N4CCNCC4)cc3)cnc2N)cc(F)c1OC [CSLP37, N-(5-(2-Amino-5-(4-(piperazin-1-yl)phenyl)pyridin-3-yl)-3-fluoro-2-methoxyphenyl)propane-1-sulfonamide]	> 10
> 10	> 10	CCCS(=O)(=O)Nc1cc(F)cc(-c2cc(-c3ccc(N4CCNCC4)cc3)cnc2N)c1 [CSLP38, N-(3-(2-Amino-5-(4-(piperazin-1-yl)phenyl)pyridin-3-yl)-5-fluorophenyl)propane-1-sulfonamide]	> 100
> 10	> 100	CCCS(=O)(=O)Nc1cc(-c2cc(-c3ccc(N4CCNCC4)cc3)cnc2N)cc(C)c1OC [CSLP42, N-(5-(2-Amino-5-(4-(piperazin-1-yl)phenyl)pyridin-3-yl)-2-methoxy-3-methylphenyl)propane-1-sulfonamide]	> 100
> 10	> 100	CCCS(=O)(=O)Nc1cc(OC)cc(-c2cc(-c3cccc(S(C)(=O)=O)c3)cnc2N)c1 [CSLP44, N-(3-(2-Amino-5-(3-(methylsulfonyl)phenyl)pyridin-3-yl)-5-methoxyphenyl)propane-1-sulfonamide]	> 1000
